According to patent US12552795B2, “Pyrrolotriazine derivatives for treating kit-and PDGFRA-mediated diseases” (Blueprint Medicines Corporation, priority 2019, dated 2026):

Legend:
[1] = molecular target: PDGFRα D842V (Homo sapiens (Human), UniProt P16234, D842V); experiment: PDGFRα D842V biochemical enzymatic activity assay (EZReader 2 mobility shift); conditions: ATP at APPKM (25 μM), 90 minutes
Description: PDGFRα and KIT enzymatic activity was monitored using the Perkin Elmer electrophoretic mobility shift technology platform, the EZReader 2.
Within the linear, steady-state phase of the kinase enzymatic reaction, the mixed pool of phosphorylated (product) and non-phosphorylated (substrate) peptides was passed through the microfluidic system of the PerkinElmer EZ Reader 2, under an applied electric potential difference. The presence of the phosphate group on the product peptide provided a difference in mass and charge between that of the substrate peptide, resulting in a separation of the substrate and product pools in the sample (Perrin et al., Expert Opin Drug Discovery 2010, January 5(1):51-63).
As the product and substrate peptide mixture passes the lasers within the instrument, these pools are detected (λex=488 nm, λem=568 nm) and resolved as separate peaks. The ratio between these peaks reflects the activity of the compound at that concentration, in that well, under those conditions.
Inhibition of KIT (D816V) PDGFRα (D842V) Mutant Biochemical Enzymatic Activity
All test articles were dissolved in 100% DMSO at a stock concentration of 10 mM. A 100×, 10-point, 4-fold serial dilution of all test compounds was created in 100% DMSO, starting at a relevant concentration, usually 1 mM. A volume of 0.130 μL of each concentration was transferred to the relevant well of a 384-well assay plate (Greiner 781 201) using a TTPLabtech Mosquito nano-liter dispenser. Using the Multidrop, the remaining constituents of the reaction were then added to the 0.130 μL of compound as follows:
The reaction was stopped by the addition of 70 μl of Stop buffer (100 mM HEPES pH 7.5, 0.015% Brij 35, 35 mM EDTA and 0.2% of Coating Reagent 3, Caliper Lifesciences). The plate was read on a Caliper EZReader 2.

[2] = Brain penetration in rats, 24 h IV infusion, brain to plasma ratios; format: in vivo, Sprague-Dawley rats
Description: To understand the brain penetration, brain to plasma ratios of the compounds were obtained in Sprague-Dawley (SD) rats. In vivo equilibrium distribution between blood and brain in preclinical species such as rats is a commonly used parameter to evaluate brain penetration. Kp,brain is the ratio of concentrations in brain and blood (Cbrain/Cplasma). The compound's passive diffusion characteristics, its affinity for membrane transporters at the blood-brain barrier (BBB), and the relative drug binding affinity differences between the plasma proteins and brain tissue influence the Kp,brain.
The animals received IV infusion of 1 mg/kg/hr of the compound over 24 hours via jugular vein cannulation. At 24 hours, blood was collected via tail vein bleeding or cardiac puncture (under anesthesia) and centrifuged to obtain plasma samples. Brain tissues were collected and homogenized with phosphate-buffered saline (PBS). The concentrations of the compounds were obtained in the plasma and brain homogenates by LC-MS/MS analysis.

Sequence of PDGFRα D842V (P16234 24-1089 D842V): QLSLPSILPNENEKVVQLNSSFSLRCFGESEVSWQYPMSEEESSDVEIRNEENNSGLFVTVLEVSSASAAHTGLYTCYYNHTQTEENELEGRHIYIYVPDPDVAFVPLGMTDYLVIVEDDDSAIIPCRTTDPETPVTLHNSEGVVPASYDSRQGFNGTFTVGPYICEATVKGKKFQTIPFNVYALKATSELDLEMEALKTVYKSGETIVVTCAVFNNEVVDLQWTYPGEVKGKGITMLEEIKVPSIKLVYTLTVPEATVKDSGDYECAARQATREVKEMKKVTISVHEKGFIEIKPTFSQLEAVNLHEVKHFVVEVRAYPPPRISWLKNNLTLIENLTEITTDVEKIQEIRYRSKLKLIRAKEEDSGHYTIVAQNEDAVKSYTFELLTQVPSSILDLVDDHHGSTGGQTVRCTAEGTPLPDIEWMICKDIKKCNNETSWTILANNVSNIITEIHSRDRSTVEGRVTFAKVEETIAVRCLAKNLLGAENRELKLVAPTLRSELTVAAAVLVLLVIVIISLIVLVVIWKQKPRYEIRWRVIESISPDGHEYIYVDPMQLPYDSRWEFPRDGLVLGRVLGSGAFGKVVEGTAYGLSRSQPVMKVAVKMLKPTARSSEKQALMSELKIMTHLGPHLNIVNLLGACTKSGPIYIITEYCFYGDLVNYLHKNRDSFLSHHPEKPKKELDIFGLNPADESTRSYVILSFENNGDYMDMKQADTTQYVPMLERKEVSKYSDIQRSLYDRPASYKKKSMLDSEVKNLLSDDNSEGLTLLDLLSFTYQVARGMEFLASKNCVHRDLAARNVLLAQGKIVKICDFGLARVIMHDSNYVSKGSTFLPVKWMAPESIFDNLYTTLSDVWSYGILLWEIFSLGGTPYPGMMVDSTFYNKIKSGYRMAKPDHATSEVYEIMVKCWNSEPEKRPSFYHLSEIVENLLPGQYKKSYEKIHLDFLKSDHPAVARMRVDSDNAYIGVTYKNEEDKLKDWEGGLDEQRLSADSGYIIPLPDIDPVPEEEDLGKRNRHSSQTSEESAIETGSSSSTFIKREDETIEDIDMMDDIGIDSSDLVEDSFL

Compound | IC50 [1] | also measured
CC(C)(O)Cn1cc(-c2cc3c(N4CCN(c5ncc([C@@](C)(N)c6ccc(F)cc6)cn5)CC4)ncnn3c2)cn1 [Compound 1, (S)-1-(4-(4-(4-(5-(1-Amino-1-(4-fluorophenyl)ethyl)pyrimidin-2-yl)piperazin-1-yl)pyrrolo[2,1-f][1,2,4]triazin-6-yl)-1H-pyrazol-1-yl)-2-methylpropan-2-ol] | < 0.3 nM | –
CC(C)(CO)n1cc(-c2cc3c(N4CCN(c5ncc([C@@](C)(N)c6ccc(F)cc6)cn5)CC4)ncnn3c2)cn1 [Compound 2, (S)-2-(4-(4-(4-(5-(1-amino-1-(4-fluorophenyl)ethyl)pyrimidin-2-yl)piperazin-1-yl)pyrrolo[2,1-f][1,2,4]triazin-6-yl)-1H-pyrazol-1-yl)-2-methylpropan-1-ol] | < 0.3 nM | –
C[C@@H](O)Cn1cc(-c2cc3c(N4CCN(c5ncc([C@@](C)(N)c6ccc(F)cc6)cn5)CC4)ncnn3c2)cn1 [Compound 3, (R)1-{4-[4-(4-{5-[(S)-1-Amino-1-(4-fluoro-phenyl)-ethyl]-pyrimidin-2-yl}-piperazin-1-yl)-pyrrolo[2,1-f][1,2,4]triazin-6-yl]-pyrazol-1-yl}-propan-2-ol] | < 0.3 nM | –
C[C@](N)(c1ccc(F)cc1)c1cnc(N2CCN(c3ncnn4cc(-c5cnn(CCO)c5)cc34)CC2)nc1 [Compound 4, (S)-2-(4-(4-(4-(5-(1-Amino-1-(4-fluorophenyl)ethyl)pyrimidin-2-yl)piperazin-1-yl)pyrrolo[2,1-f][1,2,4]triazin-6-yl)-1H-pyrazol-1-yl)ethanol] | < 0.3 nM | –
C[C@H](CO)n1cc(-c2cc3c(N4CCN(c5ncc([C@@](C)(N)c6ccc(F)cc6)cn5)CC4)ncnn3c2)cn1 [Compound 5, (R)-2-(4-(4-(4-(5-((S)-1-Amino-1-(4-fluorophenyl)ethyl)pyrimidin-2-yl)piperazin-1-yl)pyrrolo[2,1-f][1,2,4]triazin-6-yl)-1H-pyrazol-1-yl)propan-1-ol] | < 0.3 nM | –
C[C@@H](CO)n1cc(-c2cc3c(N4CCN(c5ncc([C@@](C)(N)c6ccc(F)cc6)cn5)CC4)ncnn3c2)cn1 [Compound 6, (S)-2-(4-(4-(4-(5-((S)-1-amino-1-(4-fluorophenyl)ethyl)pyrimidin-2-yl)piperazin-1-yl)pyrrolo[2,1-f][1,2,4]triazin-6-yl)-1H-pyrazol-1-yl)propan-1-ol] | < 0.3 nM | –
C[C@](N)(c1ccc(F)cc1)c1cnc(N2CCN(c3ncnn4cc(-c5cnn([C@H]6C[C@@H](O)C6)c5)cc34)CC2)nc1 [Compound 10, cis-3-(4-(4-(4-(5-((S)-1-Amino-1-(4-fluorophenyl)ethyl)pyrimidin-2-yl)piperazin-1-yl)pyrrolo[2,1-f][1,2,4]triazin-6-yl)-1H-pyrazol-1-yl)cyclobutanol] | – | Rat Kp ([2]; rat, methods of Example 4): < 0.39
CCn1cc(-c2cc3c(N4CCN(c5ncc([C@@](C)(N)c6ccc(F)cc6)cn5)CC4)ncnn3c2)cn1 [Compound 63, reference compound] | – | Kp, brain ([2]; Mean of 3 rats, IV infusion 1 mg/kg/hr over 24 hours): 1.75
